Data set [1] deals with Puccinia recondita f. sp. tritici. Put plainly: Test B: wheat leaf rust, spray on wheat seedlings, disease control rating. The data set is classed as in vivo. The settings on record: 100 = 100% disease control, 0 = no disease control relative to the controls; for pest or weed control at 10 ppm / Test B disease control rating: Rate 10 ppm. The text has this: (§1) General protocol for preparing test suspensions for Tests A-F: the test compounds were first dissolved in acetone in an amount equal to 3% of the final volume and then suspended at the desired concentration (in ppm) in acetone and purified water (50/50 mix by volume) containing 250 ppm of the surfactant PEG400 (polyhydric alcohol esters). The resulting test suspensions were then used in Tests A-F.
The test solution was sprayed to the point of run-off on wheat seedlings. The following day the seedlings were inoculated with a spore suspension of Puccinia recondita f. sp. tritici (the causal agent of wheat leaf rust) and incubated in a saturated atmosphere at 20° C. for 24 h, and then moved to a growth chamber at 20° C. for 7 days, after which time disease ratings were made.
(§2) A rating of 100 indicates 100% disease control and a rating of 0 indicates no disease control (relative to the controls). A dash (-) indicates the compound was not tested.

The next data set concerns Phakopsora pachyrhizi. The data set can be described thus: Test D: Asian soybean rust, spray on soybean seedlings, disease control rating. The data set is classed as in vivo. The conditions noted are these: 100 = 100% disease control, 0 = no disease control relative to the controls; for pest or weed control at 10 ppm / Test D disease control rating: Rate 10 ppm.
Description: as §1
The test solution was sprayed to the point of run-off on soybean seedlings. The following day the seedlings were inoculated with a spore suspension of Phakopsora pachyrhizi (the causal agent of Asian soybean rust) and incubated in a saturated atmosphere at 22° C. for 24 h and then moved to a growth chamber at 22° C. for 8 days, after which time visual disease ratings were made.
as §2

In general, pest or weed control refers to how far the test organism was held down. Read a high pest or weed control as strong suppression. One may read the melting point as the temperature of the solid-liquid transition. In the case of `COC(=O)NCc1cc(-c2ccn(-c3c(F)cccc3F)n2)ccc1C` [Compound 4, methyl N-[[5-[1-(2,6-difluorophenyl)-1H-pyrazol-3-yl]-2-methylphenyl]-methyl]carbamate], the melting point was in the range of 142 to 143 °C. For the same compound, the pest or weed control at 10 ppm in data set [1] (Puccinia recondita, 192 h) was determined as 90%. The pest or weed control at 10 ppm with Phakopsora pachyrhizi (Phakopsora pachyrhizi, 216 h) was found to be 100%.

For `CCOc1cc(F)c(-n2ccc(-c3ccc(C)c(CNC(=O)OC)c3)n2)c(F)c1` [Compound 11, methyl N-[[5-[1-(4-ethoxy-2,6-difluorophenyl)-1H-pyrazol-3-yl]-2-methylphenyl]methyl]carbamate], the melting point is 118 to 119 °C. The pest or weed control at 10 ppm in data set [1] (Puccinia recondita, 192 h) was 100%. The compound further registered a pest or weed control at 10 ppm in the data set with Phakopsora pachyrhizi (Phakopsora pachyrhizi, 216 h) of 100%.

In the case of `COC(=O)NCc1cc(-c2ccn(-c3c(F)cc(OC4CCC4)cc3F)n2)ccc1C` [Compound 13, methyl N-[[5-[1-[4-(cyclobutyloxy)-2,6-difluorophenyl]-1H-pyrazol-3-yl]-2-methylphenyl]methyl]carbamate], the melting point lay in the range of 126 to 128 °C. Moreover, in data set [1] (Puccinia recondita, 192 h), the pest or weed control at 10 ppm came out at 100%. In addition, the pest or weed control at 10 ppm in the data set on Phakopsora pachyrhizi (Phakopsora pachyrhizi, 216 h) is 100%.

As for `COC(=O)NCc1cc(-c2ccn(-c3c(F)cc(C)cc3F)n2)ccc1C` [Compound 30], the melting point was 130 to 131 °C. The same compound registered a pest or weed control at 10 ppm in data set [1] (Puccinia recondita, 192 h) of 98%. Further, the pest or weed control at 10 ppm in the data set with Phakopsora pachyrhizi (Phakopsora pachyrhizi, 216 h) came to 100%.

The compound `COC(=O)NCc1cc(-c2ccn(-c3c(F)cc(OC4CC4)cc3F)n2)ccc1C` [Compound 66, methyl N-[[5-[1-[4-(cyclopropyloxy)-2,6-difluorophenyl]-1H-pyrazol-3-yl]-2-methylphenyl]methyl]carbamate] registered a melting point of 124 to 128 °C. In data set [1] (Puccinia recondita, 192 h), this compound returned a pest or weed control at 10 ppm of 100%. Further, the pest or weed control at 10 ppm in the data set on Phakopsora pachyrhizi (Phakopsora pachyrhizi, 216 h) was determined as 100%.

On to `COC(=O)NCc1cc(-c2ccn(-c3c(F)cc(C(C)(C)F)cc3F)n2)ccc1C` [Compound 97], for which the “Test B disease control rating” value in data set [1] is listed as 100%. Further, the “Test D disease control rating” value in the data set on Phakopsora pachyrhizi is listed as 100%.

Turning to `COC(=O)NCc1cc(-c2ccn(-c3c(F)cc(OC4CC(F)(F)C4)cc3F)n2)ccc1C` [Compound 98], the “Test B disease control rating” value in data set [1] came to 99%. Besides, the “Test D disease control rating” value in the data set with Phakopsora pachyrhizi was found to be 100%.

Regarding `CON=C(C)c1cc(F)c(-n2ccc(-c3ccc(C)c(CNC(=O)OC)c3)n2)c(F)c1` [Compound 99], the “Test B disease control rating” value in data set [1] is reported as 100%. Besides, the “Test D disease control rating” value in the data set on Phakopsora pachyrhizi worked out at 100%.

As to `COC(=O)NCc1cc(-c2cc(C)n(-c3c(F)cccc3F)n2)ccc1C` [Compound 100], the melting point lay in the range of 125 to 129 °C. In data set [1] (Puccinia recondita, 192 h), this compound gave a pest or weed control at 10 ppm of 0%. This compound gave a pest or weed control at 10 ppm in the data set with Phakopsora pachyrhizi (Phakopsora pachyrhizi, 216 h) of 0%.

In turn, `COC(=O)NCc1cc(-c2cc(C)n(-c3c(Cl)cccc3Cl)n2)ccc1C` [Compound 101] showed a melting point of 146 to 150 °C. Besides, in data set [1] (Puccinia recondita, 192 h), the pest or weed control at 10 ppm amounted to 0%. Also, in the data set on Phakopsora pachyrhizi (Phakopsora pachyrhizi, 216 h), the pest or weed control at 10 ppm came out at 0%.

On to `COC(=O)NCc1cc(-c2cc(C)n(-c3c(F)cc(OC)cc3F)n2)ccc1C` [Compound 102], for which the melting point fell in the range of 128 to 132 °C. This compound also displayed a pest or weed control at 10 ppm in data set [1] (Puccinia recondita, 192 h) of 0%. The same compound displayed a pest or weed control at 10 ppm in the data set with Phakopsora pachyrhizi (Phakopsora pachyrhizi, 216 h) of 0%.

In turn, `COC(=O)NCc1cc(-c2ncn(-c3c(F)cc(C(F)(F)F)cc3F)n2)ccc1C` [Compound 103] had a melting point of 168 to 172 °C. Further, the pest or weed control at 10 ppm in data set [1] (Puccinia recondita, 192 h) is 100%. Also, the pest or weed control at 10 ppm in the data set on Phakopsora pachyrhizi (Phakopsora pachyrhizi, 216 h) came to 86%.

`COC(=O)NCc1cc(-c2ncn(-c3c(F)cc(Br)cc3F)n2)ccc1C` [Compound 104] came in with a melting point of 175 to 179 °C. In data set [1] (Puccinia recondita, 192 h), this compound displayed a pest or weed control at 10 ppm of 100%. Moreover, the pest or weed control at 10 ppm in the data set with Phakopsora pachyrhizi (Phakopsora pachyrhizi, 216 h) came to 90%.

In the case of `COC(=O)NCc1cc(-c2ncn(-c3c(F)cc(N)cc3F)n2)ccc1C` [Compound 106], the melting point was in the range of 136 to 140 °C.

Regarding `COC(=O)NCc1cc(-c2cnn(-c3c(F)cc(C(C)C)cc3F)n2)ccc1C` [Compound 108, methyl N-[[5-[2-[2,6-difluoro-4-(1-methylethyl)phenyl]-2H-1,2,3-triazol-4-yl]-2-methylphenyl]methyl]carbamate], the melting point was 102 to 106 °C. For the same compound, in data set [1] (Puccinia recondita, 192 h, Rate 2 ppm), the pest or weed control at 2 ppm is 100%. The compound further showed a pest or weed control at 2 ppm in the data set on Phakopsora pachyrhizi (Phakopsora pachyrhizi, 216 h, Rate 2 ppm) of 100%.

In the case of `COC(=O)NCc1cc(-c2cnn(-c3c(F)cc(CC(C)C)cc3F)n2)ccc1C` [Compound 109], the pest or weed control at 10 ppm in data set [1] (Puccinia recondita, 192 h) was 91%; in the data set on Phakopsora pachyrhizi (Phakopsora pachyrhizi, 216 h), 100%.

In the case of `C=C(C)c1cc(F)c(-n2ncc(-c3ccc(C)c(CNC(=O)OC)c3)n2)c(F)c1` [Compound 110], the “Test B disease control rating” value in data set [1] stood at 95%. The “Test D disease control rating” value in the data set with Phakopsora pachyrhizi was 100%.

`COC(=O)NCc1cc(-c2cnn(-c3c(F)cc(C)cc3F)n2)ccc1C` [Compound 111] registered a melting point of 117 to 121 °C. In data set [1] (Puccinia recondita, 192 h), the pest or weed control at 10 ppm came out at 99%. This compound returned a pest or weed control at 10 ppm in the data set on Phakopsora pachyrhizi (Phakopsora pachyrhizi, 216 h) of 100%.

`COC(=O)NCc1cc(-c2cnn(-c3c(F)cccc3F)n2)ccc1C` [Compound 112] yielded a melting point of 122 to 126 °C.

`COC(=O)NCc1cc(-c2cnn(-c3c(F)cc(C4CC4)cc3F)n2)ccc1C` [Compound 113] showed a melting point of 107 to 111 °C. This compound yielded a pest or weed control at 10 ppm in data set [1] (Puccinia recondita, 192 h) of 100%. The pest or weed control at 10 ppm in the data set with Phakopsora pachyrhizi (Phakopsora pachyrhizi, 216 h) is 100%.

For the compound `COC(=O)NCc1cc(-c2cnn(-c3c(F)cc(Br)cc3F)n2)ccc1C` [Compound 114], the melting point lay within 136 to 140 °C. The same compound came in with a pest or weed control at 10 ppm in data set [1] (Puccinia recondita, 192 h) of 100%. The pest or weed control at 10 ppm in the data set with Phakopsora pachyrhizi (Phakopsora pachyrhizi, 216 h) was found to be 100%.

In turn, `COC(=O)NCc1cc(-c2cnn(-c3c(F)cc(I)cc3F)n2)ccc1C` [Compound 116] displayed a melting point of 154 to 158 °C. Also, in data set [1] (Puccinia recondita, 192 h), the pest or weed control at 10 ppm is 100%. In addition, the pest or weed control at 10 ppm in the data set on Phakopsora pachyrhizi (Phakopsora pachyrhizi, 216 h) was determined as 100%.

On to `COC(=O)NCc1cc(-c2cnn(-c3c(F)cc(Cl)cc3F)n2)ccc1C` [Compound 117, methyl N-[[5-[2-(4-chloro-2,6-difluorophenyl)-2H-1,2,3-triazol-4-yl]-2-methylphenyl]methyl]carbamate], for which the pest or weed control at 10 ppm in data set [1] (Puccinia recondita, 192 h) was determined as 100%; in the data set with Phakopsora pachyrhizi (Phakopsora pachyrhizi, 216 h), 100%.

`COC(=O)NCc1cc(-c2cn(-c3c(F)cc(C)cc3F)nn2)ccc1C` [Compound 119]: the melting point lay in the range of 143 to 147 °C. The compound further had a pest or weed control at 10 ppm in data set [1] (Puccinia recondita, 192 h) of 100%. In addition, the pest or weed control at 10 ppm with Phakopsora pachyrhizi (Phakopsora pachyrhizi, 216 h) came to 0%.

For the compound `COC(=O)NCc1cc(-c2cn(-c3c(OC)cc(OC)cc3OC)nn2)ccc1C` [Compound 127], the pest or weed control at 10 ppm in data set [1] (Puccinia recondita, 192 h) was 0%; in the data set with Phakopsora pachyrhizi (Phakopsora pachyrhizi, 216 h), 0%.

As to `COC(=O)NCc1cc(-c2cn(-c3c(F)cc(N)cc3F)nn2)ccc1C` [Compound 131, methyl N-[[5-[1-(4-amino-2,6-difluorophenyl)-1H-1,2,3-triazol-4-yl]-2-methylphenyl]methyl]carbamate], the melting point was in the range of 194 to 198 °C.

Consider `COC(=O)NCc1cc(-c2ccn(-c3c(F)cc(C4OCCO4)cc3F)n2)ccc1C` [Compound 133], for which the pest or weed control at 10 ppm in data set [1] (Puccinia recondita, 192 h) worked out at 99%; in the data set with Phakopsora pachyrhizi (Phakopsora pachyrhizi, 216 h), 100%.

In the case of `COC(=O)NCc1cc(-c2ccn(-c3c(F)cc(C4OCCCO4)cc3F)n2)ccc1C` [Compound 134], the pest or weed control at 10 ppm in data set [1] (Puccinia recondita, 192 h) stood at 89%; in the data set on Phakopsora pachyrhizi (Phakopsora pachyrhizi, 216 h) it was 100%.

For the compound `COC(=O)NCc1cc(-c2ccn(-c3c(Cl)cc(C(C)C)cc3Cl)n2)ccc1C` [Compound 135], the pest or weed control at 10 ppm in data set [1] (Puccinia recondita, 192 h) was 86%; with Phakopsora pachyrhizi (Phakopsora pachyrhizi, 216 h) it was 100%.

Turning to `COC(=O)NCc1cc(-c2ccn(-c3c(Br)cc(I)cc3Br)n2)ccc1C` [Compound 136], the pest or weed control at 10 ppm is 19% in data set [1] (Puccinia recondita, 192 h) and 59% with Phakopsora pachyrhizi (Phakopsora pachyrhizi, 216 h).

For the compound `C=C(C)c1cc(Br)c(-n2ccc(-c3ccc(C)c(CNC(=O)OC)c3)n2)c(Br)c1` [Compound 137], the “Test B disease control rating” value in data set [1] was 0%. In the data set with Phakopsora pachyrhizi, the “Test D disease control rating” value amounted to 77%.

Consider `COC(=O)NCc1cc(-c2ccn(-c3c(Cl)cc(C(F)(C(F)(F)F)C(F)(F)F)cc3Cl)n2)ccc1C` [Compound 138], for which the “Test B disease control rating” value in data set [1] came out at 74%. Further, the “Test D disease control rating” value in the data set with Phakopsora pachyrhizi is recorded as 87%.

For the compound `COC(=O)NCc1cc(-c2cnn(-c3c(F)cc(C(C)=O)cc3F)n2)ccc1C` [Compound 140], the “Test B disease control rating” value in data set [1] was found to be 41%. Moreover, the “Test D disease control rating” value in the data set with Phakopsora pachyrhizi worked out at 71%.

Consider `CCON=C(C)c1cc(F)c(-n2ncc(-c3ccc(C)c(CNC(=O)OC)c3)n2)c(F)c1` [Compound 142], for which the “Test B disease control rating” value in data set [1] stood at 86%. For the same compound, in the data set on Phakopsora pachyrhizi, the “Test D disease control rating” value is listed as 100%.

`COC(=O)NCc1cc(-c2cnn(-c3c(F)cc(C(C)=NOC(C)C)cc3F)n2)ccc1C` [Compound 143]: the “Test B disease control rating” value in data set [1] worked out at 74%. The “Test D disease control rating” value in the data set on Phakopsora pachyrhizi is on record as 100%.

Regarding “methyl N-[[5-[1-(2,6-difluoro-4-methoxyphenyl)-1H-pyrazol-3-yl]-2-methylphenyl]methyl]carbamate [Compound 33]”, in data set [1], the “Test B disease control rating” value turned out to be 99%. Besides, the “Test D disease control rating” value in the data set with Phakopsora pachyrhizi is 100%.

The values above are taken from patent US11634393B2, “Substituted tolyl fungicides” (FMC CORPORATION, priority 2018, dated 2023).
